Test results taken from BigSolDB 2.1.

O=Cc1ccc(C(=O)O)cc1
solubility (mole fraction)
Conditions	283.15 K	288.15 K	293.15 K	298.15 K	303.15 K	308.15 K	313.15 K	318.15 K	323.15 K
in NMP	0.0654	0.0767	0.0897	0.104	0.121	0.14	0.161	0.184	0.211
in ethanol	0.00815	0.00973	0.0115	0.0134	0.0155	0.0181	0.0211	0.0246	0.028
in isopropanol	0.00498	0.00612	0.00727	0.00867	0.0103	0.0121	0.014	0.0163	0.0185
in methanol	0.00781	0.00899	0.00999	0.0115	0.0129	0.0144	0.0163	0.0178	0.02
in water	2.15e-05	2.83e-05	3.61e-05	4.64e-05	5.91e-05	7.67e-05	9.57e-05	0.00012	0.000148
